We go through 26 substances from publication PMC7367873, “Dissecting the sequence determinants for dephosphorylation by the catalytic subunits of phosphatases PP1 and PP2A” (Nature Communications, 2020).

Experiment [1] concerns GFP-14-3-3β and its binding proteins. The experiment in a line: GFP-14-3-3β co-IP with LC-MS/MS label-free quantification, untreated versus PP1c-treated. More on the design: species or system human. The procedure:
(§1) HeLa Kyoto cells expressing transiently transfected pEGFP(C1)-14-3-3β or pEGFP(C1) control plasmid, were incubated with 20 nM Calyculin A (# 9902 S, Cell Signaling Technology) for 12 min. Cells were washed twice on ice with cold PBS and after addition of 500 µL lysis buffer (100 mM NaCl, 10 mM Tris, 0.1% IGEPAL, 1 mM EDTA, 1 mM EGTA, 20 nM Calyculin A, 1x cOmplete Mini protease inhibitor cocktail (Sigma), 1 mM DTT, 1 mM MnCl2) cells were scraped from plates, lysed by 10 pushes through an injection needle (21 G, BD) and the insoluble fraction was pelleted by centrifugation (10 min, 10^4 rcf, 4 °C). Supernatants were then subjected to incubation with 1 µM recombinant phosphatase or buffer for 1 h at 30 °C. Next, we subjected samples to immunoprecipitation using α-GFP nanobodies covalently coupled to agarose beads (2 h, 4 °C, obtained from the EMBL PEPcore Core Facility). Beads were then washed three times with lysis buffer and samples were eluted in 1x LDS sample buffer (Thermo Fisher Scientific) by heating to 70 °C for 10 min.
(§2) The samples were then reduced with 25 mM dithiothreitol (10 min at 70 °C) and alkylated with 55 mM chloroacetamide (room temperature, 30 min, in the dark). Proteins were run on a precast 4–12% NuPAGE gel (ThermoFisher Scientific) for about 1 cm to concentrate the sample prior to in-gel tryptic digestion, which was performed according to the standard procedures. The peptides obtained were dried to completeness and resuspended in 12 µL of buffer A (0.1% FA), and 5 µL of sample were injected per MS measurement. The experiment was carried out in three independent replicates.
(§3) The samples were analyzed by LC-MS/MS on a Dionex Ultimate 3000 nano-HPLC coupled online to a Fusion Lumos Tribrid mass spectrometer (Thermo Fisher Scientific). Peptides were delivered to a trap column (75 µm × 2 cm, packed in-house with 5 µm C18 resin; Reprosil PUR AQ, Dr. Maisch) and washed using 0.1% FA at a flow rate of 5 µL/min for 10 min. Subsequently, peptides were transferred to an analytical column (75 µm × 45 cm, packed in-house with 3 µm C18 resin; Reprosil Gold) applying a flow rate of 300 nL/min and separated using a 60 min linear gradient from 4% to 32% LC solvent B (0.1% FA, 5% DMSO in ACN) in LC solvent A (0.1% FA in 5% DMSO). The eluate from the analytical column was sprayed via a stainless steel emitter (Thermo Fisher Scientific) at a source voltage of 2.1 kV into the mass spectrometer. The transfer capillary was heated to 275 °C. The Fusion Lumos was operated in positive ionization mode and data-dependent acquisition (DDA), automatically switching between MS1 and MS2 spectrum acquisition. Full scan MS1 spectra were recorded in the Orbitrap from 360 to 1300 m/z at a resolution of 60k (automatic gain control (AGC) target value of 4e5 charges, maximum injection time (maxIT) of 50 ms). Up to 20 peptide precursors were isolated (isolation window, 1.7 m/z; maximum injection time, 25 ms; and AGC value, 1e5), fragmented by high-energy collision-induced dissociation (HCD) using 30% normalized collision energy (NCE), and analyzed at a resolution of 15k in the Orbitrap. Precursor ions that were singly charged, unassigned, or with charge states >6+ were excluded. The dynamic exclusion duration of fragmented precursor ions was 20 s.
(§4) Peptide and protein identification and LFQ were performed using MaxQuant software (version 1.6.1.0)[64] by searching the data against all canonical protein sequences as annotated in the Swissprot reference database (human proteins only, 20193 entries, downloaded 22 March 2016, internally annotated with PFAM domains) using the embedded search engine Andromeda[65]. The MaxQuant search was performed using two variable modifications; oxidation of methionine and N-terminal protein acetylation. Carbamidomethylation on cysteines was specified as a fixed modification. Trypsin (Trypsin/P) was specified as the proteolytic enzyme with up to two allowed missed cleavage sites.

In the next experiment the test system is GFP-14-3-3β. The experiment in a line: GFP-14-3-3β co-IP with LC-MS/MS, untreated GFP-14-3-3β versus GFP control (14-3-3 interactome). The class given is binding, human. The procedure: as §1, §2, §3, §4
[2] abbreviates: pairwise comparison PP1 vs untreated, student's t-test, 3 replicates each, LC-MS/MS label-free quantification.
[3] abbreviates: pairwise comparison untreated GFP-14-3-3β vs GFP, student's t-test, 3 replicates each, LC-MS/MS label-free quantification.
Where [4] appears, read: log2 difference, pairwise comparison PP1 vs untreated, label-free quantification, 3 replicates each.
Setting [5] is: log2 difference, pairwise comparison untreated vs GFP, label-free quantification, 3 replicates each.
Setting [6] is: PP1 vs untreated, label-free quantification.
Where [7] appears, read: untreated vs GFP, label-free quantification.
[8] abbreviates: PP1 vs untreated, LFQ intensities, 3 replicates each.
Setting [9] is: untreated vs GFP, LFQ intensities, 3 replicates each.
Setting [10] is: PP1 vs untreated, LFQ intensities, replicates 1-3.
[11] abbreviates: untreated vs GFP, LFQ intensities, replicates 1-3.
Setting [12] is: pairwise comparison PP1 vs untreated.
Where [13] appears, read: pairwise comparison untreated vs GFP.
[14] abbreviates: GFP-14-3-3β co-IP LC-MS/MS, PP1 vs untreated, student's t-test, label-free quantification, 3 replicates each.
Where [15] appears, read: GFP-14-3-3β co-IP LC-MS/MS, untreated vs GFP, student's t-test, label-free quantification, 3 replicates each.

Turning to FLNA, the “Difference (log2), PP1 vs untreated” value in experiment [1] (setting [2]) was -2.217 log2. In addition, in the experiment on GFP-14-3-3β (setting [3]), the “Difference (log2), untreated vs GFP” value is given as -0.8027 log2.

Turning to FRYL, the “Difference (log2), PP1 vs untreated” value in experiment [1] (setting [2]) is on record as -4.747 log2. The “Difference (log2), untreated vs GFP” value in the experiment with GFP-14-3-3β (setting [3]) is recorded as 5.1751 log2.

As for FXR1, in experiment [1] (setting [4]), the “Difference (log2), PP1 vs untreated” value is 2.4595. For the same substance, in the experiment with GFP-14-3-3β (setting [5]), the “Difference (log2), untreated vs GFP” value was -1.238.

For FXR2, in experiment [1] (setting [4]), the “Difference (log2), PP1 vs untreated” value came out at 2.11. Further, in the experiment on GFP-14-3-3β (setting [5]), the “Difference (log2), untreated vs GFP” value is -0.343.

Regarding FYN, the “Difference (log2), PP1 vs untreated” value in experiment [1] (setting [6]) is 0.8257 log2. For the same substance, in the experiment on GFP-14-3-3β (setting [7]), the “Difference (log2), untreated vs GFP” value was -1.633 log2.

In the case of G3BP1, the “Difference (log2), PP1 vs untreated” value in experiment [1] (setting [6]) was found to be 0.9288 log2. In the experiment on GFP-14-3-3β (setting [7]), the “Difference (log2), untreated vs GFP” value is listed as -0.3554 log2.

On to GAPDH, for which the “Difference (log2), PP1 vs untreated” value in experiment [1] (setting [2]) was -4.245 log2. Besides, in the experiment on GFP-14-3-3β (setting [3]), the “Difference (log2), untreated vs GFP” value came out at 0.2696 log2.

GCN1L1: the “Difference (log2), PP1 vs untreated” value in experiment [1] (setting [8]) was found to be 0.3397 log2. For the same substance, in the experiment on GFP-14-3-3β (setting [9]), the “Difference (log2), untreated vs GFP” value was 0.08 log2.

Consider GEMIN5, for which, in experiment [1] (setting [4]), the “Difference (log2), PP1 vs untreated” value is 1.609. In addition, in the experiment on GFP-14-3-3β (setting [5]), the “Difference (log2), untreated vs GFP” value was -0.2087.

For the substance GNG12, the “Difference (log2), PP1 vs untreated” value in experiment [1] (setting [10]) is -1.974 log2. Also, in the experiment on GFP-14-3-3β (setting [11]), the “Difference (log2), untreated vs GFP” value is reported as -0.9148 log2.

For H2AFY, the “Difference (log2), PP1 vs untreated” value in experiment [1] (setting [10]) was -1.711 log2. For the same substance, the “Difference (log2), untreated vs GFP” value with GFP-14-3-3β (setting [11]) is given as 1.914 log2.

HDAC2: the “Difference (log2), PP1 vs untreated” value in experiment [1] (setting [12]) is reported as 0.1471 log2. In the experiment on GFP-14-3-3β (setting [13]), the “Difference (log2), untreated vs GFP” value was determined as 0.5775 log2.

For HEATR1, the “Difference (log2), PP1 vs untreated” value in experiment [1] (setting [10]) is -1.168 log2. Also, in the experiment on GFP-14-3-3β (setting [11]), the “Difference (log2), untreated vs GFP” value came to 3.268 log2.

On to HERC2, for which the “Difference (log2), PP1 vs untreated” value in experiment [1] (setting [12]) was determined as 0.111 log2. Further, in the experiment on GFP-14-3-3β (setting [13]), the “Difference (log2), untreated vs GFP” value is -0.06655 log2.

On to HNRNPAB, for which the “Difference (log2), PP1 vs untreated” value in experiment [1] (setting [8]) came to 0.4916 log2. Further, the “Difference (log2), untreated vs GFP” value in the experiment on GFP-14-3-3β (setting [9]) stood at 0.1502 log2.

For the substance HNRNPK, the “Difference (log2), PP1 vs untreated” value in experiment [1] (setting [12]) came out at 0.05533 log2. In the experiment with GFP-14-3-3β (setting [13]), the “Difference (log2), untreated vs GFP” value came to 0.6096 log2.

Regarding HNRNPU, the “Difference (log2), PP1 vs untreated” value in experiment [1] (setting [14]) is -0.3998 log2. In addition, the “Difference (log2), untreated vs GFP” value in the experiment with GFP-14-3-3β (setting [15]) was found to be 0.9402 log2.

With HSP90AB1, in experiment [1] (setting [10]), the “Difference (log2), PP1 vs untreated” value is recorded as -0.9521 log2. Also, the “Difference (log2), untreated vs GFP” value with GFP-14-3-3β (setting [11]) is 0.1843 log2.

Turning to HSPA1B;HSPA1A, the “Difference (log2), PP1 vs untreated” value in experiment [1] (setting [10]) is -0.7937 log2. Also, in the experiment with GFP-14-3-3β (setting [11]), the “Difference (log2), untreated vs GFP” value is 0.2148 log2.

Turning to HSPA5, the “Difference (log2), PP1 vs untreated” value in experiment [1] (setting [14]) is on record as -0.6263 log2. In addition, the “Difference (log2), untreated vs GFP” value in the experiment with GFP-14-3-3β (setting [15]) is given as -0.3432 log2.

For the substance HSPA8, the “Difference (log2), PP1 vs untreated” value in experiment [1] (setting [14]) is -0.3347 log2. Also, in the experiment with GFP-14-3-3β (setting [15]), the “Difference (log2), untreated vs GFP” value was -0.3706 log2.

Turning to HSPA9, the “Difference (log2), PP1 vs untreated” value in experiment [1] (setting [10]) is -1.091 log2. Further, the “Difference (log2), untreated vs GFP” value in the experiment on GFP-14-3-3β (setting [11]) is listed as -0.4978 log2.

As to HSPB1, the “Difference (log2), PP1 vs untreated” value in experiment [1] (setting [14]) is on record as -0.1455 log2. In addition, the “Difference (log2), untreated vs GFP” value with GFP-14-3-3β (setting [15]) was 0.3674 log2.

With IFI16, in experiment [1] (setting [6]), the “Difference (log2), PP1 vs untreated” value was 0.961 log2. In addition, in the experiment on GFP-14-3-3β (setting [7]), the “Difference (log2), untreated vs GFP” value was found to be 0.868 log2.

As to ILF2, the “Difference (log2), PP1 vs untreated” value in experiment [1] (setting [12]) was -0.07574 log2. In the experiment with GFP-14-3-3β (setting [13]), the “Difference (log2), untreated vs GFP” value worked out at 3.657 log2.

Regarding IMPDH2, the “Difference (log2), PP1 vs untreated” value in experiment [1] (setting [6]) is given as 1.157 log2. The “Difference (log2), untreated vs GFP” value in the experiment with GFP-14-3-3β (setting [7]) is reported as -1.172 log2.
